Results: patent publication US20250154156A1, “QUINAZOLINE DERIVATIVE AS KRAS G12C MUTATION INHIBITOR” (Shenzhen Forward Pharmaceuticals Co., Limited, priority 2022, published 2025)

Assays:
[1] = target: Ba/F3 (KRAS-G12C-H95Q) cells (Homo sapiens, UniProt P01116, G12C/H95Q, cells depend on it); assay: Proliferation experiment of Ba/F3 (KRAS-G12C-H95Q) cells; format: cell-based; conditions: 72 hours, Cell Titer-Glo, read-out: Test Example 4 IC50
Procedure: Engineered cell strain Ba/F3 (KRAS-G12C-H95Q) was a cell strain constructed by the inventors according to the methods described in Warmuth M. et al, Curr Opin Oncol. […] The cells were grown at 37° C. in a humidified incubator with […].
(§1) According to the solution described in Cell Titer-Glo Luminescent cell Viability Assay (Promega catalog number #G7570) of Promega Corporation, the number of living cells in the culture was detected. 90 μL of cells (3,000 cells/well) were cultured in a growth medium in a Corning black transparent bottom 96-well plate and were cultured overnight in a 5% CO2 humidified incubator at 37° C. The compound diluted serially in 100% DMSO was added to the cells by a pipette, and the cells were cultured for another 72 hours. 100 μL of the well-mixed Cell Titer-Glo reagent was added to the cells in the 96-well culture plate to lyse the cells and gently mixed. Subsequently, […] was detected on an Envision microplate detector, and the data of each compound was obtained. Finally, the data was input into a suitable software package (such as Prism) for curve fitting analysis.

[2] = system: NCI-H358 cells (KRAS G12C mutant cell line); assay: Proliferation experiment of NCI-H358 cells (Cell Titer-Glo); format: cell-based; conditions: Homo sapiens, 72 hours, read-out: Test Example 1 IC50
Procedure: as §1, with “(8,000” for “(3,000”

[3] = target: Ba/F3 (KRAS-G12C-Y96C) cells (Homo sapiens, UniProt P01116, G12C/Y96C, cells depend on it); assay: Proliferation experiment of Ba/F3 (KRAS-G12C-Y96C) cells; format: cell-based; conditions: 72 hours, Cell Titer-Glo, read-out: Test Example 3 IC50
Sequence of Ba/F3 (KRAS-G12C-Y96C) cells (P01116 whole entry G12C/Y96C): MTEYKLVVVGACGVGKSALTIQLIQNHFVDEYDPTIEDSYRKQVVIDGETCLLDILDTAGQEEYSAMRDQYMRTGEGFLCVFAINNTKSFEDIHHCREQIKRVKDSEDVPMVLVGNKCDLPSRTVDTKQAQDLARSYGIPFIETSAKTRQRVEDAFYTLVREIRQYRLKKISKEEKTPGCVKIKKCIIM
Procedure: Engineered cell strain Ba/F3 (KRAS-G12C-Y96C) was a cell strain constructed by the inventors according to the methods described in Warmuth M. et al, Curr Opin Oncol. […] The cells were grown at 37° C. in a humidified incubator with […].
as §1, with “[…]” for “5%”

[4] = system: NCI-H23 cells (KRAS G12C mutant cell line); assay: Proliferation experiment of NCI-H23 cells (Cell Titer-Glo); format: cell-based; conditions: Homo sapiens, 72 hours, read-out: Test Example 2 IC50
Procedure: Human lung cancer cell line NCI-H23 (ATCC, CRL-5800) was a KRAS G12C mutant cell line.
as §1, with “(8,000” for “(3,000”

[5] = target: Ba/F3 (KRAS-G12C-R68S) cells (Homo sapiens, UniProt P01116, G12C/R68S, cells depend on it); assay: Proliferation experiment of Ba/F3 (KRAS-G12C-R68S) cells; format: cell-based; conditions: 72 hours, Cell Titer-Glo, read-out: Test Example 5 IC50
Sequence of Ba/F3 (KRAS-G12C-R68S) cells (P01116 whole entry G12C/R68S): as the sequence (P01116 whole entry G12C/Y96C) above, with R68S, C96Y counted along it
Procedure: Engineered cell strain Ba/F3 (KRAS-G12C-R68S) was a cell strain constructed by the inventors according to the methods described in Warmuth M. et al, Curr Opin Oncol. […] The cells were grown at 37° C. in a humidified incubator with 5% CO2.
as §1

[6] = target: Ba/F3 (KRAS-G12C-Q99L) cells (Homo sapiens, UniProt P01116, G12C/Q99L, cells depend on it); assay: Proliferation experiment of Ba/F3 (KRAS-G12C-Q99L) cells; format: cell-based; conditions: 72 hours, Cell Titer-Glo, read-out: Test Example 6 IC50
Sequence of Ba/F3 (KRAS-G12C-Q99L) cells (P01116 whole entry G12C/Q99L): as the sequence (P01116 whole entry G12C/Y96C) above, with C96Y, Q99L counted along it
Procedure: Engineered cell strain Ba/F3 (KRAS-G12C-Q99L) was a cell strain constructed by the inventors according to the methods described in Warmuth M. et al, Curr Opin Oncol. […] The cells were grown at 37° C. in a humidified incubator with 5% CO2.
as §1

[7] = In vitro human liver microsome stability experiment; format: in vitro ADME; conditions: human liver microsomes; for half-life / microsomal CLint: 1 mg/mL microsome protein, NADPH, 37° C.; for microsomal CLint: read-out: CLint(mic); for CLint scaled: scaled to liver
Procedure: Eight 96-well incubation plates were prepared, named [NT], Blank60, and NCF60, respectively. […] No compound to be tested or control compound was added to the Blank60 plate and samples were taken after 60 minutes of incubation. The NCF60 plate, in which a potassium phosphate buffer was used instead of an NADPH regeneration system solution (Sigma, N0505), was incubated for 60 minutes. […] Only the working solution of microsomes was added to the Blank60 plate, and the incubation plates Blank60, T5, T15, T30, T45, and T60 except TO and NCF60 were then placed in a water bath at 37° C. for pre-incubation for about 10 minutes. To the TO plate sample, 600 μL of a stop solution (acetonitrile:methanol (95:5, v/v) solution containing 100 ng/mL tolbutamide (Sigma, T0891)) was added first, and then an NADPH regeneration system working solution was added. 98 μL of a potassium phosphate buffer was added to each well of the NCF60 plate and incubated for 60 minutes. After the pre-incubation in the incubation plates Blank60, T5, T15, T30, T45, and T60 was complete, 98 μL of the NADPH regeneration system working solution was added to each sample well to initiate the reaction. After an appropriate incubation time (such as 5, 15, 30, 45, and 60 minutes), 600 μL of the stop solution was added to each sample well and control sample well in the Blank60, […] the reaction. All the sample plates were shaken evenly and centrifuged at 3220×g for 20 minutes. 200 μL of each test sample supernatant was taken and diluted into 200 μL of an aqueous solution containing 0.3% formic acid for LC-MS/MS analysis, and 100 μL of the control sample supernatant was taken and diluted into 300 μL of pure water for LC-MS/MS analysis. Calculations were carried out according to the following formulas: […]

Sequence of Ba/F3 (KRAS-G12C-H95Q) cells (P01116 whole entry G12C/H95Q): as the sequence (P01116 whole entry G12C/Y96C) above, with H95Q, C96Y counted along it

Row | SMILES | GI50 [1] [nM] | IC50 [2] [nM] | GI50 [3] [nM] | IC50 [4] [nM] | GI50 [5] [nM] | GI50 [6] [nM] | half-life [7] [min] | microsomal CLint [7] [µL/min/mg] | CLint scaled [7] [mL/min/kg]
1 | C=C(F)C(=O)N1CCN(c2nc(OC[C@@]34CCCN3C[C@H](F)C4)nc3c(F)c(-c4cc(O)cc5cccc(Cl)c45)ccc23)C[C@@H]1CC#N [Compound 2] | 70.1 | 0.22 | 18.9 | 0.65 | 93.9 | 130 | 18.8 | 73.7 | 66.3
2 | C#Cc1c(F)ccc2cc(O)cc(-c3ccc4c(N5CCN(C(=O)C(=C)F)[C@@H](CC#N)C5)nc(OC[C@@]56CCCN5C[C@H](F)C6)nc4c3F)c12 [Compound 4] | 39.4 | 0.44 | 5.2 | 1.15 | 50.6 | 9.06 | 25.5 | 54.3 | 48.9
3 | C=C(F)C(=O)N1CCN(c2nc(OC[C@@]34CCCN3C[C@H](F)C4)nc3c(F)c(-c4cccc5cccc(Cl)c45)ccc23)C[C@@H]1CC#N [Compound 5] | 709 | 1.58 | 473 | 1.27 | 929 | 589 |  |  | 
4 | C=C(F)C(=O)N1CCN(c2nc(OCC34CCCN3CCC4)nc3c(F)c(-c4cccc5cccc(Cl)c45)c(F)cc23)C[C@@H]1CC#N [Compound 6A, 2-((2S)-4-(7-(8-chloronaphth-1-yl)-6,8-difluoro-2-((tetrahydro-1H-pyrrolizin-7a(5H)-yl)methoxy)quinazolin-4-yl)-1-(2-fluoroacryloyl)piperazin-2-yl)acetonitrile] | 689 | 1.83 | 525 | 1.44 | 863 | 779 |  |  | 
5 | C=C(F)C(=O)N1CCN(c2nc(OCC34CCCN3CCC4)nc3c(F)c(-c4cccc5cccc(Cl)c45)ccc23)C[C@@H]1CC#N [Compound 17, (S)-2-(4-(7-(8-chloronaphth-1-yl)-8-fluoro-2-((tetrahydro-1H-pyrrolizin-7a(5H)-yl)methoxy)quinazolin-4-yl)-1-(2-fluoroacryloyl)piperazin-2-yl)acetonitrile] |  | 0.6 |  | 0.53 |  |  |  |  | 
6 | C=C(F)C(=O)N1CCN(c2nc(OCC34CCCN3CCC4)nc3c(F)c(-c4cc(O)cc5c(Cl)cccc45)ccc23)C[C@@H]1CC#N [Compound 28, (S)-2-(4-(7-(5-chloro-3-hydroxynaphth-1-yl)-8-fluoro-2-((tetrahydro-1H-pyrrolizin-7a(5H)-yl)methoxy)quinazolin-4-yl)-1-(2-fluoroacryloyl)piperazin-2-yl)acetonitrile] | > 5000 |  | > 5000 |  | > 5000 | > 5000 |  |  | 
7 | C=C(F)C(=O)N1CCN(c2nc(OCC34CCCN3CCC4)nc3c(F)c(-c4cc(O)cc5ccc(Cl)cc45)ccc23)C[C@@H]1CC#N [Compound 29, (S)-2-(4-(7-(7-chloro-3-hydroxynaphth-1-yl)-8-fluoro-2-((tetrahydro-1H-pyrrolizin-7a(5H)-yl)methoxy)quinazolin-4-yl)-1-(2-fluoroacryloyl)piperazin-2-yl)acetonitrile] | > 5000 |  | > 5000 |  | > 5000 | > 5000 |  |  | 

Second part, the compound after the results:

Row | GI50 [1] [nM] | IC50 [2] [nM] | GI50 [3] [nM] | IC50 [4] [nM] | GI50 [5] [nM] | GI50 [6] [nM] | half-life [7] [min] | microsomal CLint [7] [µL/min/mg] | CLint scaled [7] [mL/min/kg] | SMILES
8 |  | 0.47 |  | 1.71 |  |  | 24.5 | 56.5 | 50.9 | C#Cc1c(F)ccc2cccc(-c3c(F)cc4c(N5CCN(C(=O)C(=C)F)[C@@H](CC#N)C5)nc(OCC56CCCN5CCC6)nc4c3F)c12 [Compound 19B, 2-((2S)-4-(7-(8-ethynyl-7-fluoronaphth-1-yl)-6,8-difluoro-2-((tetrahydro-1H-pyrrolizin-7a(5H)-yl)methoxy)quinazolin-4-yl)-1-(2-fluoroacryloyl)piperazin-2-yl)acetonitrile]
9 | > 5000 |  | > 5000 |  | > 5000 | > 5000 |  |  |  | C#Cc1ccc2cccc(-c3c(F)cc4c(N5CCN(C(=O)C(=C)F)[C@@H](CC#N)C5)nc(OCC56CCCN5CCC6)nc4c3F)c2c1 [Compound 25, 2-((2S)-4-(7-(7-ethynylnaphth-1-yl)-6,8-difluoro-2-((tetrahydro-1H-pyrrolizin-7a(5H)-yl)methoxy)quinazolin-4-yl)-1-(2-fluoroacryloyl)piperazin-2-yl)acetonitrile]
10 | > 5000 |  | > 5000 |  | > 5000 | > 5000 |  |  |  | C#Cc1cc(-c2c(F)cc3c(N4CCN(C(=O)C(=C)F)[C@@H](CC#N)C4)nc(OCC45CCCN4CCC5)nc3c2F)c2ccccc2c1 [Compound 26, 2-((2S)-4-(7-(3-ethynylnaphth-1-yl)-6,8-difluoro-2-((tetrahydro-1H-pyrrolizin-7a(5H)-yl)methoxy)quinazolin-4-yl)-1-(2-fluoroacryloyl)piperazin-2-yl)acetonitrile]
11 | > 5000 |  | > 5000 |  | > 5000 | > 5000 |  |  |  | C#Cc1cccc2c(-c3c(F)cc4c(N5CCN(C(=O)C(=C)F)[C@@H](CC#N)C5)nc(OCC56CCCN5CCC6)nc4c3F)cccc12 [Compound 27, 2-((2S)-4-(7-(5-ethynylnaphth-1-yl)-6,8-difluoro-2-((tetrahydro-1H-pyrrolizin-7a(5H)-yl)methoxy)quinazolin-4-yl)-1-(2-fluoroacryloyl)piperazin-2-yl)acetonitrile]
